pIC50: −log10 of the molar value.

Assay [1] concerns the target T1, DGKζ (Homo sapiens, UniProt Q13574).
T1 construct: purchased Carna 12-110
Nature of the assay: DGKζ biochemical assay (ADP-Glo). The note with it: read-out: DGK ζ IC50. (In ADP-Glo the light output rises with the ADP produced.)

Assay [2] has as its target DGKα (Homo sapiens, UniProt P23743). Nature of the assay: DGKα biochemical assay (ADP-Glo). The note with it: read-out: DGK α IC50. In short, it runs like this:
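ADP-Glo kinase assay using OAG/PS (1:2) lipid substrate, sonicated, in HEPES pH 7.0 buffer with MgCl2, CaCl2, DTT, BSA, Triton X-100. Enzyme preincubated with compound 30 min at RT; substrate with ATP (DGKα: 400 μM) added, 45 min RT. Luminescence read; % inhibition vs DMSO and no-enzyme controls.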

T1 sequence (Q13574 1-929 isoform Q13574-4): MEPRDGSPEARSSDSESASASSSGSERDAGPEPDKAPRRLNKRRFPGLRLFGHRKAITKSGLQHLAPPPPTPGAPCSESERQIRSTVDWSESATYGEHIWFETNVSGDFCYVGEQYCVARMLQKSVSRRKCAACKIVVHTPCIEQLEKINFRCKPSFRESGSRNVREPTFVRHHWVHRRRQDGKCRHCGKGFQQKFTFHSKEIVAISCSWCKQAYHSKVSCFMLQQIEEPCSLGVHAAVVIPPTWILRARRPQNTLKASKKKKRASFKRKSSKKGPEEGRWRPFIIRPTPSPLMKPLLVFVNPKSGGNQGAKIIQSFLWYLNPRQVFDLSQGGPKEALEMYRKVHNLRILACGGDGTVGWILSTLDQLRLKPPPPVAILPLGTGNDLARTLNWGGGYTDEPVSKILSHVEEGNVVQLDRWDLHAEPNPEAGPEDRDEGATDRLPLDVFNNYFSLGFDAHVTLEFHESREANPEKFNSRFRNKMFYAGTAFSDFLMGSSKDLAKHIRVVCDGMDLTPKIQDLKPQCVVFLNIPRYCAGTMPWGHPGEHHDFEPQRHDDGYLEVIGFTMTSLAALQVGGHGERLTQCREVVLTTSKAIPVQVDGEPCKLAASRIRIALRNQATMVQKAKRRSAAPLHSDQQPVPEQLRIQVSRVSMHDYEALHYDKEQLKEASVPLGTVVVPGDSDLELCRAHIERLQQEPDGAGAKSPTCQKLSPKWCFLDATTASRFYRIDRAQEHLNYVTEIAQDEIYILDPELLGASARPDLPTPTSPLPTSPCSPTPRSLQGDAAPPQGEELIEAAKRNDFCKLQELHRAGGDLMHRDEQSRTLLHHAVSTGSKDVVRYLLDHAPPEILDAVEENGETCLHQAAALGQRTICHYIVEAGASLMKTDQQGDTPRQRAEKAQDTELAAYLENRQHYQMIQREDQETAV
DGKα, sequence (P23743 whole entry): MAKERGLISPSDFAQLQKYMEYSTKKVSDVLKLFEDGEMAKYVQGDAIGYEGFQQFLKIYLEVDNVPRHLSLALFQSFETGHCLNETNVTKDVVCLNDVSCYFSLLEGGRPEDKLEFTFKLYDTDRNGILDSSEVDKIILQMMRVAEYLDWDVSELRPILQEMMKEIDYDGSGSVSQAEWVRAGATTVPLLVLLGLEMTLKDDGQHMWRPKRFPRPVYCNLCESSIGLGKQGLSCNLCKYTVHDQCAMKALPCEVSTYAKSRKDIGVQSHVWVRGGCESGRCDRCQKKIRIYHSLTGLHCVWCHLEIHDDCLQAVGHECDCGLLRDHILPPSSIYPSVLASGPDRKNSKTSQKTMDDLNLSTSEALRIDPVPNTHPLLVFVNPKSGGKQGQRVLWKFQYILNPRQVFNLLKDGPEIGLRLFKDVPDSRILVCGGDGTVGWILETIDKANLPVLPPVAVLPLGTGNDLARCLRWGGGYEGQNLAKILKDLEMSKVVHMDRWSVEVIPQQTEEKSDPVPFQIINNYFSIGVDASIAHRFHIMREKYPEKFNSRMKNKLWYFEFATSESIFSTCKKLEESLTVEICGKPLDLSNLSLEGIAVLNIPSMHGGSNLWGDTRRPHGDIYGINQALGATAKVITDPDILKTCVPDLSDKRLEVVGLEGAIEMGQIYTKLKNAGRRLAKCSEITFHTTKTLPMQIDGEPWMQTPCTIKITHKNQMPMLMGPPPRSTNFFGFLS

One may read the pIC50 as the IC50 on a negative log10 scale, so that one unit is a factor of ten. In the case of `Cc1cc(F)ccc1N(C[C@H]1CCCO1)[C@H]1CC[C@H](N(C)c2c(C#N)c(=O)n(C)c3ccc(C#N)nc23)CC1` [Example 167, trans-8-((-4-((4-fluoro-2-methylphenyl)(((R)-tetrahydrofuran-2-yl)methyl)amino)cyclohexyl) (methyl)amino)-5-methyl-6-oxo-5,6-dihydro-1,5-naphthyridine-2,7-dicarbonitrile], the results for the pIC50 in assay [1] and in assay [2] were 7.00 to 8.00 and 6.00 to 7.00, respectively.

For the molecule `Cc1cc(F)ccc1N(CC1CCCCO1)[C@H]1CC[C@H](N(C)c2c(C#N)c(=O)n(C)c3ccc(C#N)nc23)CC1` (stereo partly drawn) [Example 136, trans-8-((-4-((4-fluoro-2-methylphenyl)((tetrahydro-2H-pyran-2-yl)methyl)amino)cyclohexyl)(methyl)amino)-5-methyl-6-oxo-5,6-dihydro-1,5-naphthyridine-2,7-dicarbonitrile], the results for the pIC50 in assay [1] and in assay [2] were 7.00 to 8.00 and 6.00 to 7.00, respectively.

Take `Cn1c(=O)cc(N(C)[C@H]2CC[C@@H](N(CC3CC3)c3ccc(F)c(OC(F)F)c3)CC2)c2nc(C#N)ccc21` [Example 84]: the pIC50 in assay [1] was 6.00 to 7.00; in assay [2], 7.00 to 8.00.

In the case of `Cn1c(=O)c(C#N)c(N(C)[C@H]2CC[C@@H](N(C[C@@H]3CCCOC3)c3ccc4c(c3)OCO4)CC2)c2nc(C#N)ccc21` [Example 142, cis-8-((-4-(benzo[d][1,3]dioxol-5-yl(((S)-tetrahydro-2H-pyran-3-yl)methyl)amino)cyclohexyl)(methyl)amino)-5-methyl-6-oxo-5,6-dihydro-1,5-naphthyridine-2,7-dicarbonitrile], the pIC50 in assay [1] and in assay [2] was 7.00 to 8.00 in each case.

On to `Cn1c(=O)c(C#N)c(N(C)[C@H]2CC[C@H](N(CC3COC3)c3ccc(F)cc3)CC2)c2nc(Cl)ccc21` [Example 3N, trans-6-Chloro-4-[[4-(N-4-fluorophenyl-N-oxetan-3-ylmethylanilino)cyclohexyl]-methylamino]-1-methyl-2-oxo-1,2-dihydro-1,5-naphthyridine-3-carbonitrile], for which the pIC50 was at most 6.00 in assay [1] and 7.00 to 8.00 in assay [2].

Regarding `Cn1c(=O)c(C#N)c(N(C)[C@H]2CC[C@H](N(CC3CC3)c3cccc(F)c3)CC2)c2nc(Cl)ccc21` [Example 23, trans-6-chloro-4-((4-((cyclopropylmethyl)(3-fluorophenyl)amino)cyclohexyl)(methyl)amino)-1-methyl-2-oxo-1,2-dihydro-1,5-naphthyridine-3-carbonitrile], the pIC50 in assay [1] is 6.00 to 7.00; in assay [2], 7.00 to 8.00.

For the molecule `Cn1c(=O)c(C#N)c(N(C)[C@H]2CC[C@@H](N(CC3CCC3)c3ccc(F)cc3)CC2)c2nc(C#N)ccc21` [Example 42, cis-8-((-4-((cyclobutylmethyl)(4-fluorophenyl)amino)cyclohexyl)(methyl)amino)-5-methyl-6-oxo-5,6-dihydro-1,5-naphthyridine-2,7-dicarbonitrile], the pIC50 was 6.00 to 7.00 in assay [1] and above 8.00 in assay [2].

Consider `Cn1c(=O)c([N+](=O)[O-])c(N2CCC(N(CC3(C)COC3)c3ccccc3)CC2)c2nc(C#N)ccc21` [Example 1D, 5-Methyl-8-(4-(((3-methyloxetan-3-yl)methyl)(phenyl)amino)piperidin-1-yl)-7-nitro-6-oxo-5,6-dihydro-1,5-naphthyridine-2-carbonitrile], for which the pIC50 in assay [1] is at most 6.00; in assay [2], 6.00 to 7.00.

For `Cn1c(=O)c(C#N)c(N(C)[C@H]2CC[C@H](N(CC3CC3)c3ccc(F)c(OC4CC4)c3)CC2)c2nc(C#N)ccc21` [Example 135, trans-8-((-4-((3-cyclopropoxy-4-fluorophenyl) (cyclopropylmethyl)amino)cyclohexyl)(methyl)amino)-5-methyl-6-oxo-5,6-dihydro-1,5-naphthyridine-2,7-dicarbonitrile], the pIC50 in assay [1] and in assay [2] was 7.00 to 8.00 in each case.

In the case of `Cc1cc(F)ccc1N(C[C@H]1CCOC1)[C@H]1CC[C@H](N(C)c2c(C#N)c(=O)n(C)c3ccc(C#N)nc23)CC1` [Example 165, trans-8-((-4-((4-fluoro-2-methylphenyl)(((R)-tetrahydrofuran-3-yl)methyl)amino)cyclohexyl) (methyl)amino)-5-methyl-6-oxo-5,6-dihydro-1,5-naphthyridine-2,7-dicarbonitrile], the pIC50 in assay [1] and in assay [2] was 6.00 to 7.00 each time.

In the case of `Cn1c(=O)cc(N(C)[C@H]2CC[C@@H](N(CC3CC3)c3cc(F)cc(F)c3)CC2)c2nc(C#N)ccc21` [Example 82], the values for the pIC50 in assay [1] and in assay [2] were 6.00 to 7.00 and 7.00 to 8.00, respectively.

On to `Cn1c(=O)cc(N(C)[C@H]2CC[C@@H](N(CC3CCC3)c3ccc4c(c3)OC(F)(F)O4)CC2)c2nc(C#N)ccc21` [Example 133, cis-8-((-4-((cyclobutylmethyl)(2,2-difluorobenzo[d] [1,3]dioxol-5-yl)amino)cyclohexyl)(methyl)amino)-5-methyl-6-oxo-5,6-dihydro-1,5-naphthyridine-2-carbonitrile], for which the pIC50 is 6.00 to 7.00 in assay [1] and 7.00 to 8.00 in assay [2].

As to `COc1cc(F)ccc1N(C1CC1)[C@H]1CC[C@@H](N(C)c2cc(=O)n(C)c3ccc(C#N)nc23)CC1` [Example 3W, cis-8-[[4-(N-Cyclopropyl-4-fluoro-2-methoxy-anilino)cyclohexyl]-methyl-amino]-5-methyl-6-oxo-1,5-naphthyridine-2-carbonitrile], the pIC50 in assay [1] and in assay [2] was 6.00 to 7.00 in each case.

Consider `CN1C(=O)CN([C@H]2CC[C@H](N(CC3CC3)c3ccccc3)CC2)c2nc(C#N)ccc21` [Example 2A, trans-4-[4-[N-(Cyclopropylmethyl)anilino]cyclohexyl]-1-methyl-2-oxo-3H-pyrido[2,3-b]pyrazine-6-carbonitrile], for which the results for the pIC50 in assay [1] and in assay [2] were at most 6.00 and 7.00 to 8.00, respectively.

Regarding `Cn1c(=O)cc(N(C)[C@H]2CC[C@H](N(c3ccccc3)C3CC3)CC2)c2nc(C#N)ccc21` [Example 3T, trans-8-((4-(cyclopropyl(phenyl)amino)cyclohexyl)(methyl)amino)-5-methyl-6-oxo-5,6-dihydro-1,5-naphthyridine-2-carbonitrile], the negative-log IC50 (pIC50) in assay [1] and in assay [2] was 6.00 to 7.00 throughout.

With `CN(c1cc(=O)n(C)c2ccc(C#N)nc12)C1CCC(N(CC2CCC2)c2ccc(CN3CCOCC3)cc2)CC1` (single isomer, unassigned) [Example 189, (cis or trans)-8-((4-((cyclobutylmethyl)(4-(morpholinomethyl)phenyl)amino)cyclohexyl) (methyl)amino)-5-methyl-6-oxo-5,6-dihydro-1,5-naphthyridine-2-carbonitrile], the pIC50 in assay [1] and in assay [2] was at most 6.00 each time.

As to `CC(C)CN(c1ccc(F)cc1)[C@H]1CC[C@H](N(C)c2cc(=O)n(C)c3ccc(C#N)nc23)CC1` [Example 41, trans-8-((-4-((4-fluorophenyl)(isobutyl)amino)cyclohexyl)(methyl)amino)-5-methyl-6-oxo-5,6-dihydro-1,5-naphthyridine-2-carbonitrile], the pIC50 in assay [1] and in assay [2] was at most 6.00 each time.

Consider `Cn1c(=O)c(C#N)c(N(C)[C@H]2CC[C@@H](N(CC3CCC3)c3ccc4c(c3)OC(F)(F)O4)CC2)c2nc(C#N)ccc21` [Example 121, cis-8-((-4-((cyclobutylmethyl)(2,2-difluorobenzo[d] [1,3]dioxol-5-yl)amino)cyclohexyl)(methyl)amino)-5-methyl-6-oxo-5,6-dihydro-1,5-naphthyridine-2,7-dicarbonitrile], for which the pIC50 in assay [1] and in assay [2] was 7.00 to 8.00 throughout.

In the case of `Cc1[nH]c2ccccc2c1C(=O)N[C@H]1CC[C@@H](N(CC2CC2)c2ccccc2)CC1` [Example 4A], the negative-log IC50 (pIC50) in assay [1] and in assay [2] was at most 6.00 in each case.

Consider `Cc1cc(F)ccc1N(CC1CCCO1)C1CCC(N(C)c2c(C#N)c(=O)n(C)c3ccc(C#N)nc23)CC1` (stereo in doubt) [Example 153, cis-8-((-4-((4-fluoro-2-methylphenyl) ((tetrahydrofuran-2-yl)methyl)amino)cyclohexyl) (methyl)amino)-5-methyl-6-oxo-5,6-dihydro-1,5-naphthyridine-2,7-dicarbonitrile], for which the pIC50 in assay [1] and in assay [2] was 6.00 to 7.00 throughout.

Regarding `COc1ccc(N(C2CC2)[C@H]2CC[C@H](N(C)c3c(C#N)c(=O)n(C)c4ccc(Cl)nc34)CC2)cc1` [Example 3E, trans-6-chloro-4-((4-(cyclopropyl(4-methoxyphenyl)amino)cyclohexyl)(methyl)amino)-1-methyl-2-oxo-1,2-dihydro-1,5-naphthyridine-3-carbonitrile], the pIC50 is at most 6.00 in assay [1] and 7.00 to 8.00 in assay [2].

For `Cc1ccc2c(c1)c(N1CCC(N(CC3CC3)c3ccccc3)CC1)cc1nncn12` [Example 1F, N-(Cyclopropylmethyl)-1-(7-methyl-[1,2,4]triazolo[4,3-a]quinolin-5-yl)-N-phenylpiperidin-4-amine], the pIC50 in assay [1] is at most 6.00; in assay [2], 7.00 to 8.00.

For `Cn1c(=O)c(F)c(N(C)[C@H]2CC[C@@H](N(CC3COCCO3)c3ccc(F)cc3F)CC2)c2nc(C#N)ccc21` (stereo partly drawn) [Example 205, cis-8-((-4-(((1,4-dioxan-2-yl)methyl)(2,4-difluorophenyl)amino)cyclohexyl)(methyl)amino)-7-fluoro-5-methyl-6-oxo-5,6-dihydro-1,5-naphthyridine-2-carbonitrile], the pIC50 in assay [1] and in assay [2] was 7.00 to 8.00 throughout.

On to `Cn1c(=O)c(C#N)c(N(C)[C@H]2CC[C@@H](N(CC3CCOC3)c3ccc(F)c(OC(F)F)c3)CC2)c2nc(C#N)ccc21` (stereo partly drawn) [Example 158, cis-8-((-4-((3-(difluoromethoxy)-4-fluorophenyl) ((tetrahydrofuran-3-yl)methyl)amino)cyclohexyl) (methyl)amino)-5-methyl-6-oxo-5,6-dihydro-1,5-naphthyridine-2,7-dicarbonitrile], for which the pIC50 in assay [1] and in assay [2] was 7.00 to 8.00 each time.
